Source: US9376393B2, “Quinoline compounds which are anti-angiogenic integrin alpha5 beta1 inhibitors for use in the treatment of fibrosis or fibrosis-related diseases” (Clanotech AB, priority 2012, dated 2016)
Several values for one entry are separate records, joined by “and”; a condition that tells them apart may be missing. Equal entries are not always repeated. Structures can show the parent of a compound that is named as a salt.

How the values were obtained:
Assay type in all cases: in vivo
[1] = tested on: iNOS; test: Bleomycin-induced lung fibrosis mouse model: immunohistochemical localization of iNOS
Protocol: (§1) Bleomycin-induced Lung Fibrosis Mouse Model
(§2) Thirty male CD-1 mice weighing 27.5±0.4 g were used in this study (obtained from Harlan Nossan, Milan, Italy), and were allowed access to food and water ad libitum. The mice were kept in laminar flow rooms at constant temperature and humidity with 3 animals in each cage. The temperature of the room was controlled between 20-26° C. and the humidity of the room was controlled between 40-70%.
(§3) Mice received a single intra-tracheal instillation of saline (0.9%), or saline containing bleomycin sulfate (BLM, 0.1 IU per mouse) in a volume of 100 μl. Mice were then sacrificed after 7 days by pentobarbitone overdose. […]
(§4) At 7 days after BLM administration, lung tissues were fixed in 10% PBS-buffered formaldehyde and 7 μm sections were prepared from paraffin-embedded tissues. […] Specific labeling was detected with a biotin-conjugated goat anti-rabbit IgG and avidin-biotin peroxidase complex (DBA). […]

[2] = tested on: COX-2; test: Bleomycin-induced lung fibrosis mouse model: immunohistochemical localization of COX-2
Protocol: as §1, §2, §3, §4

[3] = tested on: Nitrotyrosine; test: Bleomycin-induced lung fibrosis mouse model: immunohistochemical localization of nitrotyrosine
Protocol: as §1, §2, §3, §4

[4] = tested on: TGF-β; test: Bleomycin-induced lung fibrosis mouse model: immunohistochemical localization of TGF-β
Protocol: as §1, §2, §3, §4

[5] = tested on: Poly-ADP-ribose (PAR); test: Bleomycin-induced lung fibrosis mouse model: immunohistochemical localization of PAR
Protocol: as §1, §2, §3, §4

[6] = tested on: bleomycin-induced lung fibrosis; test: Bleomycin-induced lung fibrosis mouse model: overall outcome
Description: as §1
(§5) Pulmonary fibrosis is a common response to various insults to the lung and is the end-point of a numerous and heterogenous group of disorders known as interstitial lung disease (ILD), characterized by chronic inflammation and progressive fibrosis of the pulmonary interstitium. […] instillation of the anti-tumour agent bleomycin (BLM) is the most commonly used animal model for pulmonary fibrosis.
as §2
(§6) Mice received a single intra-tracheal instillation of saline (0.9%), or saline containing bleomycin sulfate (BLM, 0.1 IU per mouse) in a volume of 100 μl. Mice were then sacrificed after 7 days by pentobarbitone overdose.
(§7) Animals were randomized into three experimental groups of 10 animals in each group, and were treated with either hydroxypropyl methyl cellulose (HPMC) (0.5%)/HPbetaCyclodextrin (20%) as a 5 ml/kg s.c. injection 30 min after intra-tracheal instillation of BLM and every 12 h thereafter until completion of the study, or with the compound I-4×HCl (4-[(4-Methoxyphenyl)amino]-6-(methylcarbamoyl)quinoline-3-carboxylic acid hydrochloride) at 30 mg/kg as a s.c. injection 30 min after intra-tracheal instillation of BLM and every 12 h thereafter until completion of the study.
The levels of various fibrotic markers were measured in the three groups (A, B and C). For each marker, the level measured in the bleomycin-injured, vehicle-treated group (BLM+Vehicle) was taken as 100%. In Table 3, the corresponding marker levels for the “sham injured” group treated with vehicle (Sham+Vehicle), and the bleomycin-injured group treated with compound I-4 (BLM+I-4×HCl), are indicated as a percentage of the level in the BLM+Vehicle group.

[7] = tested on: bleomycin-induced lung fibrosis; test: Bleomycin-induced lung fibrosis mouse model: histological examination, scoring for lung fibrosis; design: key to Histological fibrosis score / Histological fibrosis score, Mean: 0 = normal lung, 8 = total fibrous obliteration of fields
Description: as §1, §5, §2, §6, §7
Lung biopsies were taken 7 days after BLM injection. After fixation at room temperature in buffered formaldehyde solution (10% in phosphate buffered saline [PBS]), the sections were prepared and stained by haematoxylin-eosin and observed with an Axiovision Zeiss microscope (Milan, Italy).
Scoring for lung fibrosis was graded on a scale from 0 to 8 by examining randomly chosen sections, with 5 fields per sample at a magnification of ×100. Criteria for grading lung fibrosis were as follows: grade 0, normal lung; grade 1, minimal fibrous thickening of alveolar or bronchiolar walls; grade 3, moderate thickening of walls without obvious damage to lung architecture; grade 5, increased fibrosis with definite damage to lung structure and formation of fibrous bands or small fibrous masses; grade 7, severe distortion of structure and large fibrous areas; and grade 8, total fibrous obliteration of fields (Cuzzocrea S, et al. Am J Physiol Lung Cell Mol Physiol. (2007) 292:L1095-104).
All data in the text are presented as mean±s.e. mean of n observations, where n represents the number of animals studied. All statistical analysis was calculated using GraphPad Prism 5 (GraphPad Software, San Diego, Calif., USA). Data without repeated measurements were assessed by a Mann-Whitney U t-test. Data with repeated measurements were assessed by a two-way ANOVA followed by a Bonferroni post-hoc test. A P-value of less than 0.05 was considered to be statistically significant.

[8] = tested on: lung oedema; test: Bleomycin-induced lung fibrosis mouse model: measurement of lung oedema
Protocol: as §1, §2, §3
The wet lung weight was measured 7 days after BLM injection by careful excision of the lung from other adjacent extraneous tissues. The lung was then exposed for 48 h to 180° C. and the dry weight measured. Water content was then calculated by subtracting the dry weight from the wet weight.

[9] = tested on: Myeloperoxidase (MPO); test: Bleomycin-induced lung fibrosis mouse model: myeloperoxidase (MPO) assay in lung; conditions: percentage of the level in the BLM+Vehicle group (100%); 30 mg/kg s.c. every 12 h; 7 days after BLM
Protocol: as §1, §2, §3
Myeloperoxidase (MPO) activity was determined 7 days after BLM injection. […] The rate of change in absorbance was measured spectrophotometrically at 650 nm. MPO activity was defined as the quantity of enzyme degrading 1 μmol of peroxide per min at 37° C. and was expressed in units per gram weight of wet tissue.

[10] = tested on: Thiobarbituric acid-reactant substances (TBARS); test: Bleomycin-induced lung fibrosis mouse model: thiobarbituric acid-reactant substances in lung; conditions: percentage of the level in the BLM+Vehicle group (100%); 30 mg/kg s.c. every 12 h; 7 days after BLM
Protocol: as §1, §2, §3
Thiobarbituric acid-reactant substances (TBARS) measurement, which is considered a good indicator of lipid peroxidation, was determined in the lung tissues collected at 7 days after BLM administration. […] The absorbance of the supernatant was measured spectrophotometrically at […]. Levels of TBARS are expressed as μM/100 mg of wet tissue.

[11] = tested on: TNF-α; test: Bleomycin-induced lung fibrosis mouse model: measurement of cytokines, TNF-α; conditions: percentage of the level in the BLM+Vehicle group (100%); 30 mg/kg s.c. every 12 h; 7 days after BLM
Protocol: as §1, §2, §6, §7
(§8) TNF-α and IL-1β levels were evaluated from lung tissues collected at 7 days after BLM administration. […]

[12] = tested on: IL-1β; test: Bleomycin-induced lung fibrosis mouse model: measurement of cytokines, IL-1β; conditions: percentage of the level in the BLM+Vehicle group (100%); 30 mg/kg s.c. every 12 h; 7 days after BLM
Protocol: as §1, §2, §6, §7, §8

[13] = Bleomycin-induced lung fibrosis mouse model: observations, body weight; conditions: 30 mg/kg 30 min after intra-tracheal BLM and every 12 h thereafter
Protocol: as §1, §2, §3
At the time of routine monitoring, the animals were checked for any effects of acute lung injury and treatments on normal behavior such as mobility, food and water consumption (by looking only), body weight gain/loss (body weights were measured daily), eye/hair matting and any other abnormal effect. Death and observed clinical signs were recorded on the basis of the numbers of animals within each subset.

[14] = BLM-injured mice treated with compound, compared with sham group
[15] = 30 mg/kg 30 min after intra-tracheal BLM and every 12 h thereafter
[16] = percentage of the level in the BLM+Vehicle group (100%), 30 mg/kg s.c. every 12 h, 7 days after BLM

CNC(=O)c1ccc2ncc(C(=O)O)c(Nc3ccc(OC)cc3)c2c1 [Compound I-4, 4-[(4-Methoxyphenyl)amino]-6-(methylcarbamoyl)quinoline-3-carboxylic acid]
iNOS level versus sham group (in words) [1, 14]: reduced to levels similar to those of the sham group
COX-2 level versus sham group (in words) [2, 14]: reduced to levels similar to those of the sham group
Nitrotyrosine level versus sham group (in words) [3, 14]: reduced to levels similar to those of the sham group
TGF-β level versus sham group (in words) [4, 14]: reduced to levels similar to those of the sham group
poly-ADP-ribose (PAR) level versus sham group (in words) [5, 14]: reduced to levels similar to those of the sham group
levels of the markers induced by bleomycin (in words) ([6]; all markers of Table 3, versus BLM+Vehicle): statistically significantly reduced
overall effect in the bleomycin model (in words) ([6]; conclusion from Tables 2 and 3): potent anti-fibrotic and ant-inflammatory effect

CNC(=O)c1ccc2ncc(C(=O)O)c(Nc3ccc(OC)cc3)c2c1 [I-4 × HCl, 4-[(4-Methoxyphenyl)amino]-6-(methylcarbamoyl)quinoline-3-carboxylic acid hydrochloride]
acute lung injury (in words) [7, 15]: significant attenuation
histological scoring of fibrosis (in words) [7, 15]: significant attenuation
Histological fibrosis score, Mean ([7]; group mean of 10 mice, BLM-injured CD-1 mice, 30 mg/kg s.c. 30 min after BLM and every 12 h, 7 days after BLM, scale from 0 to 8): 2.40
Histological fibrosis score ([7]; individual mice 1-10, BLM-injured CD-1 mice, 30 mg/kg s.c. 30 min after BLM and every 12 h, 7 days after BLM, scale from 0 to 8, hydrochloride, 30 mg/kg): 2.0 (4×) and 3.0 (5×) and 1.0
Histological score for lung acute injury [7, 16]: 33%
lung oedema (in words) [8, 15]: significant attenuation
Wet/dry weight ratio (oedema) [8, 16]: 52%
Lung myeloperoxidase (MPO) [9]: 47%
Lung TBARS levels [10]: 45%
Lung TNF-α levels [11]: 45%
Lung IL-1β levels [12]: 50%
iNOS (immunohistochemical localization) [1, 16]: 0.1%
COX-2 (immunohistochemical localization) [2, 16]: 0.1%
Nitrotyrosine (immunohistochemical localization) [3, 16]: 0.1%
TGF-β (immunohistochemical localization) [4, 16]: 0.1%
Poly-ADP-ribose (PAR) (immunohistochemical localization) [5, 16]: 0.1%
weight loss (in words) [13]: significant attenuation
lung inflammation (in words) [6, 15]: significant attenuation
